Test system: Costello (CS) zebrafish injected with HRASV12 plasmid
Assay: Phenotype analysis (survival, developmental defects) of Costello zebrafish embryos
Assay type: in vivo, Zebrafish (Danio rerio)
Details: HRASG12V-embryos; for survival rate: single agent 20 μM by bathing 1 dpf to 5 dpf, 4 days of treatment; for number of defective individuals among alive embryo: single agent 20 μM, vehicle (DMSO) 60%
Protocol: Zebrafish (Danio rerio) embryos were obtained from natural spawnings and raised in embryo medium (E3) (97) at 28.5° C. Embryos were staged as described previously [46]. Starting 5 days post-fertilisation (dpf), embryos were fed daily. […] 1 nl of 12.5 ng/μl of GFP-H-RASV12 plasmid and 12.5 ng/μl of T2 transposase mRNA were co-injected in the first cell of zebrafish eggs. Control embryos were injected with the same volume of PBS. H-RASV12 was expressed in zebrafish embryo under heat shock, 30 mn at 37° C. at 1 day post fertilization (dpf) and embryo expressing GFP at 2 dpf were selected for the study.
The embryo injected with the HRASV12 plasmid were treated daily by bathing from 1 dpf to 5 dpf with respectively 20 μM bezafibrate, 20 μM urolithin A, 20 μM bezafibrate+20 μM urolithin A, 10 μM bezafibrate+5 μM urolithin A, 5 μM bezafibrate+5 μM urolithin A. Control embryos were treated with the same volume of DMSO corresponding to 0.2% of DMSO. The imaging and phenotype analysis of mortality and defects of appearance after plasmid injection were performed on alive embryo anesthetized using ethyl 3-aminobenzoate methanesulfonate, MS-222 (Sigma, Cat. #A-5040) at 200 mg/L at 2 days post fertilization, 3 dpf, 4 dpf and 5 dpf using a ZEISS axiocam stereomicroscope (ZEISS, Germany).
Embryos injected with HRASV12 plasmid were selected at 2 days post fertilization (dpf) following their GFP^+/+ expression. HRASV12 plasmid was activated under a heat shock of embryos at 37° C. for 30 minutes. Embryos were observed daily from 2 dpf to 5 dpf in order to analyze the effect of HRASV12 overexpression on their physiological development (FIG. 1A, 1B).

| SMILES | survival rate | number of defective individuals among alive embryo [%] |
| --- | --- | --- |
| CC(C)(Oc1ccc(CCNC(=O)c2ccc(Cl)cc2)cc1)C(=O)O [bezafibrate, 2-(4-{2-[(4-chlorobenzoyl)amino]ethyl}phenoxy)-2-methylpropanoic acid] | up to 70% | 45 |
| O=c1oc2cc(O)ccc2c2ccc(O)cc12 [urolithin A] | ≤ 65% | 43 |

Reference: US20240293358A1, “COMPOSITION COMPRISING PPAR-MODULATOR AND AN UROLITHIN DERIVATIVE AND USES THEREOF” (Universite de Bordeaux, priority 0001, published 2024)
